US20230129359A1, “MUSCARINIC RECEPTOR 4 ANTAGONISTS AND METHODS OF USE” (Neurocrine Biosciences, Inc., priority 2020, published 2023)

Molecular target: T1, human M4 receptor (Homo sapiens, UniProt P08173)
T1 construct: expressed in transfected cells; host or cells: CHO cells
T1 sequence (P08173 1-479): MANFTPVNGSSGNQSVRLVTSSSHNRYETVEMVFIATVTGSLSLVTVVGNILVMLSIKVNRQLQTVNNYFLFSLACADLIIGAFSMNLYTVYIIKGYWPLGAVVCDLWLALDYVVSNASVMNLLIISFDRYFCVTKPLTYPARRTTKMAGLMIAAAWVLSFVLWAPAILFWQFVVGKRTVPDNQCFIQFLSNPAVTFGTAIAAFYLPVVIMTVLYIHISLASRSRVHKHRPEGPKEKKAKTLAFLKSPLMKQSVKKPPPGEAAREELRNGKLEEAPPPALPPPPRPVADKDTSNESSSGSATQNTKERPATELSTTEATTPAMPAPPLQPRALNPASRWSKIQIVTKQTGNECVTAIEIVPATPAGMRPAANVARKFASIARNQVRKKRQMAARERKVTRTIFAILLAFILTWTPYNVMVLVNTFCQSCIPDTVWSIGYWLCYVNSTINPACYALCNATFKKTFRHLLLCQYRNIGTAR
Assay: Radioligand ([3H]N-methylscopolamine) binding assay, membranes from CHO cells expressing human M4 receptor
Settings: Ki against human M4 receptor; membranes from CHO cells; tritiated N-methylscopolamine 1.5 nM; read-out: K
In short: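 Competition binding used CHO-cell membranes expressing human M4 with 1.5 nM [3H]N-methylscopolamine and twelve compound concentrations ([…]). Incubation was 90 minutes at 37 °C in 50 mM HEPES, 100 mM NaCl, 5 mM MgCl2, 1 mM EDTA, pH 7.4. Bound ligand was collected by filtration onto PEI-treated glass fibre for Ki.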

| Structure (SMILES) | Ki [µM] |
| --- | --- |
| CC(=O)Nc1ccc(CN2CC3(CC(NC(=O)N4[C@H](C)CN(c5ncc(C(F)(F)F)cn5)C[C@@H]4C)C3)C2)cc1 [Compound 321, (2R,6S)-N-{2-[(4-acetamidophenyl)methyl]-2-azaspiro[3.3]heptan-6-yl}-2,6-dimethyl-4-[5-(trifluoromethyl)pyrimidin-2-yl]piperazine-1-carboxamide] | 0.1 to 1 |
| C[C@@H]1CN(c2ncc(C(F)(F)F)cn2)C[C@H](C)N1C(=O)NC1CC2(C1)CN(Cc1ccc(OC(F)F)cc1)C2 [Compound 322, (2R,6S)-N-(2-{[4-(difluoromethoxy)phenyl]meth-yl}-2-azaspiro[3.3]heptan-6-yl)-2,6-dimethyl-4-[5-(trifluoromethyl)pyrimidin-2-yl]piperazine-1-carboxamide] | 0.01 to 0.1 |
| C[C@@H]1CN(c2ncc(C(F)(F)F)cn2)C[C@H](C)N1C(=O)NC1CC2(C1)CN(Cc1ccc(C(F)(F)F)cc1)C2 [Compound 323, (2R,6S)-2,6-dimethyl-N-(2-{[4-(trifluoromethyl)phen-yl]methyl}-2-aza-spiro[3.3]heptan-6-yl)-4-[5-(trifluoromethyl)pyrimidin-2-yl]piperazine-1-carboxamide] | 0.01 to 0.1 |
| C[C@@H]1CN(c2ncc(C(F)(F)F)cn2)C[C@H](C)N1C(=O)NC1CC2(C1)CN(Cc1ccc(Cl)cc1)C2 [Compound 325, (2R,6S)-N-{2-[(4-chlorophenyl)methyl]-2-azaspiro[3.3]heptan-6-yl}-2,6-dimethyl-4-[5-(trifluoromethyl)pyrimidin-2-yl]piperazine-1-carboxamide] | < 0.01 |
| C[C@@H]1CN(c2ncc(C(F)(F)F)cn2)C[C@H](C)N1C(=O)NC1CC2(C1)CN(CC13CC4CC(CC(C4)C1)C3)C2 [Compound 327, (2R,6S)-N-[2-(adamantan-1-ylmethyl)-2-azaspiro[3.3]heptan-6-yl]-2,6-dimethyl-4-[5-(trifluoromethyl)pyrimidin-2-yl]piperazine-1-carboxamide] | 0.01 to 0.1 |
| C[C@@H]1CN(c2ncc(C(F)(F)F)cn2)C[C@@H](C)N1C(=O)NC1CC2(C1)CN(Cc1ccc(F)cc1)C2 [Compound 328, (2R,6R)-N-{2-[(4-fluorophenyl)methyl]-2-azaspiro[3.3]heptan-6-yl}-2,6-dimethyl-4-[5-(trifluoromethyl)pyrimidin-2-yl]piperazine-1-carboxamide] | 0.01 to 0.1 |
| C[C@@H]1CN(c2ncc(C#N)cn2)C[C@H](C)N1C(=O)NC1CC2(C1)CN(Cc1ccc(F)cc1)C2 [Compound 330, (2R,6S)-4-(5-cyanopyrimidin-2-yl)-N-{2-[(4-fluorophenyl)methyl]-2-azaspiro[3.3]heptan-6-yl}-2,6-dimethylpiperazine-1-carboxamide] | 0.1 to 1 |
| C[C@@H]1CN(c2ncc(C(F)(F)F)cn2)C[C@H](C)N1C(=O)NC1CC2(C1)CN(CC1CC(F)(F)C1)C2 [Compound 333, (2R,6S)-N-{2-[(3,3-difluorocyclobutyl)methyl]-2-azaspiro[3.3]heptan-6-yl}-2,6-dimethyl-4-[5-(trifluoromethyl)pyrimidin-2-yl]piperazine-1-carboxamide] | 0.1 to 1 |
| CC(c1ccccc1)N1CC2(CC(NC(=O)N3[C@H](C)CN(c4ncc(C(F)(F)F)cn4)C[C@@H]3C)C2)C1 (stereo partly drawn) [Compound 334, (2R,6S)-2,6-dimethyl-N-[2-(1-phenylethyl)-2-azaspiro[3.3]heptan-6-yl]-4-[5-(trifluoromethyl)pyrimidin-2-yl]piperazine-1-carboxamide] | < 0.01 |
| C[C@@H]1CN(c2ncc(C(F)(F)F)cn2)C[C@H](C)N1C(=O)NC1CC2(C1)CN(Cc1ccccc1O)C2 [Compound 337, (2R,6S)-N-{2-[(2-hydroxyphenyl)methyl]-2-azaspiro[3.3]heptan-6-yl}-2,6-dimethyl-4-[5-(trifluoromethyl)pyrimidin-2-yl]piperazine-1-carboxamide] | 0.01 to 0.1 |
| Cc1ccsc1CN1CC2(CC(NC(=O)N3[C@H](C)CN(c4ncc(C(F)(F)F)cn4)C[C@@H]3C)C2)C1 [Compound 338, (2R,6S)-2,6-dimethyl-N-{2-[(3-methylthiophen-2-yl)methyl]-2-azaspiro[3.3]heptan-6-yl}-4-[5-(trifluoromethyl)pyrimidin-2-yl]piperazine-1-carboxamide] | < 0.01 |
| Cc1ccc(CN2CC3(CC(NC(=O)N4[C@H](C)CN(c5ncc(C(F)(F)F)cn5)C[C@@H]4C)C3)C2)s1 [Compound 339, (2R,6S)-2,6-dimethyl-N-{2-[(5-methylthiophen-2-yl)methyl]-2-azaspiro[3.3]heptan-6-yl}-4-[5-(trifluoromethyl)pyrimidin-2-yl]piperazine-1-carboxamide] | < 0.01 |
| C[C@@H]1CN(c2ncc(C(F)(F)F)cn2)C[C@H](C)N1C(=O)NC1CC2(C1)CN(Cc1ccc(Cl)s1)C2 [Compound 340, (2R,6S)-N-{2-[(5-chlorothiophen-2-yl)methyl]-2-azaspiro[3.3]heptan-6-yl}-2,6-dimethyl-4-[5-(trifluoromethyl)pyrimidin-2-yl]piperazine-1-carboxamide] | < 0.01 |
| C[C@@H]1CN(c2ncc(C(F)(F)F)cn2)C[C@H](C)N1C(=O)OC1(C(F)F)CC2(CN(Cc3ccccc3)C2)C1 [Compound 341, 2-benzyl-6-(difluoromethyl)-2-azaspiro[3.3]heptan-6-yl (2R,6S)-2,6-dimethyl-4-[5-(trifluoromethyl)pyrimidin-2-yl]piperazine-1-carboxylate] | 0.01 to 0.1 |
| C[C@@H]1CN(c2cnc(C(F)(F)F)cn2)C[C@H](C)N1C(=O)OC1(C(F)F)CC2(CN(Cc3ccccc3)C2)C1 [Compound 342, 2-benzyl-6-(difluoromethyl)-2-azaspiro[3.3]heptan-6-yl (2R,6S)-2,6-dimethyl-4-[5-(trifluoromethyl)pyrazin-2-yl]piperazine-1-carboxylate] | 0.1 to 1 |
| C[C@@H]1CN(c2ncc(C(F)(F)F)cn2)C[C@@H](C)N1C(=O)OC1(C(F)F)CC2(CN(Cc3ccccc3)C2)C1 [Compound 344, 2-benzyl-6-(difluoromethyl)-2-azaspiro[3.3]heptan-6-yl (2R,6R)-2,6-dimethyl-4-[5-(trifluoromethyl)pyrimidin-2-yl]piperazine-1-carboxylate] | 0.01 to 0.1 |
| C[C@@H]1CN(c2ncc(C(F)(F)F)cn2)[C@@H](C)CN1C(=O)OC1(C(F)F)CC2(CN(Cc3ccccc3)C2)C1 [Compound 346, 2-benzyl-6-(difluoromethyl)-2-azaspiro[3.3]heptan-6-yl (2R,5S)-2,5-dimethyl-4-[5-(trifluoromethyl)pyrimidin-2-yl]piperazine-1-carboxylate] | 0.01 to 0.1 |
| C[C@@H]1CN(c2cnc(C(F)(F)F)cn2)[C@@H](C)CN1C(=O)OC1(C(F)F)CC2(CN(Cc3ccccc3)C2)C1 [Compound 347, 2-benzyl-6-(difluoromethyl)-2-azaspiro[3.3]heptan-6-yl (2R,5S)-2,5-dimethyl-4-[5-(trifluoromethyl)pyrazin-2-yl]piperazine-1-carboxylate] | 0.1 to 1 |
| C[C@@H]1CN(c2ncc(C(F)(F)F)cn2)CCN1C(=O)OC1(C(F)F)CC2(CN(Cc3ccccc3)C2)C1 [Compound 349, 2-benzyl-6-(difluoromethyl)-2-azaspiro[3.3]heptan-6-yl (2R)-2-methyl-4-[5-(trifluoromethyl)pyrimidin-2-yl]piperazine-1-carboxylate] | 0.01 to 0.1 |
| C[C@@H]1CN(c2ncc(C(F)(F)F)cn2)C[C@H](C)N1C(=O)OC1(C)CC2(CN(Cc3ccccc3)C2)C1 [Compound 352, 2-benzyl-6-methyl-2-azaspiro[3.3]heptan-6-yl (2R,6S)-2,6-dimethyl-4-[5-(trifluoromethyl)pyrimidin-2-yl]piperazine-1-carboxylate] | 0.1 to 1 |
| C[C@@H]1CN(c2cnc(C(F)(F)F)cn2)C[C@H](C)N1C(=O)OC1(C)CC2(CN(Cc3ccccc3)C2)C1 [Compound 353, 2-benzyl-6-methyl-2-azaspiro[3.3]heptan-6-yl (2R,6S)-2,6-dimethyl-4-[5-(trifluoromethyl)pyrazin-2-yl]piperazine-1-carboxylate] | 0.01 to 0.1 |
| C[C@@H]1CN(c2ncc(C(F)(F)F)cn2)C[C@@H](C)N1C(=O)OC1(C)CC2(CN(Cc3ccccc3)C2)C1 [Compound 355, 2-benzyl-6-methyl-2-azaspiro[3.3]heptan-6-yl (2R,6R)-2,6-dimethyl-4-[5-(trifluoromethyl)pyrimidin-2-yl]piperazine-1-carboxylate] | 0.01 to 0.1 |
| C[C@@H]1CN(c2cnc(C(F)(F)F)cn2)C[C@@H](C)N1C(=O)OC1(C)CC2(CN(Cc3ccccc3)C2)C1 [Compound 356, 2-benzyl-6-methyl-2-azaspiro[3.3]heptan-6-yl (2R,6R)-2,6-dimethyl-4-[5-(trifluoromethyl)pyrazin-2-yl]piperazine-1-carboxylate] | 0.01 to 0.1 |
| C[C@@H]1CN(c2ncc(C(F)(F)F)cn2)[C@@H](C)CN1C(=O)OC1(C)CC2(CN(Cc3ccccc3)C2)C1 [Compound 358, 2-benzyl-6-methyl-2-azaspiro[3.3]heptan-6-yl (2R,5S)-2,5-dimethyl-4-[5-(trifluoromethyl)pyrimidin-2-yl]piperazine-1-carboxylate] | < 0.01 |
